Measured values as given in the supplement of paper PMC9763283.

What was measured:
Test in all cases: area under growth-rate inhibition curve (AUC GRI) (dimensionless (GR-based AUC)); higher = less growth inhibition
Conditions in all cases: exposure time: 72 h; concentrations: 0.1, 1, 10 uM
BT474-LTR = tested on: BT474-LTR
In short: (§1)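 Six breast cancer cell line models were used: two triple-negative lines, plus parental HER2+ lines and HER2+ lines resistant to a two-drug combination, each plated at an optimised log-phase density and treated with compound at 0.1, 1 or 10 µM for 72 h. After fixation in 4% paraformaldehyde, nuclei were stained with Hoechst 33342 or DAPI, imaged and counted. Growth was corrected using Day 0 plates, untreated Day 3 plates and DMSO controls, with 2 biological replicates. These corrected counts gave the area under the growth-rate inhibition curve.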

BT474-P = tested on: BT474-P
In short: as §1

MDA-MB-231 = tested on: MDA-MB-231
In short: as §1

MDA-MB-468 = tested on: MDA-MB-468
In short: as §1

SKBR3-LTR = tested on: SKBR3-LTR
In short: as §1

SKBR3-P = tested on: SKBR3-P
In short: as §1

Compound	area under growth-rate inhibition curve (BT474-LTR)	area under growth-rate inhibition curve (BT474-P)	area under growth-rate inhibition curve (MDA-MB-231)	area under growth-rate inhibition curve (MDA-MB-468)	area under growth-rate inhibition curve (SKBR3-LTR)	area under growth-rate inhibition curve (SKBR3-P)
Cc1cc(C(C)(C)C)c(O)c(C)c1CC1=NCCN1.[Cl-].[H+] [Oxymetazoline hydrochloride]	1.09	1.05	1.01	1.04	1.06	1.02
CC(C)C1NC(=O)C(CCCCN)NC(=O)C(Cc2c[nH]c3ccccc23)NC(=O)C(Cc2ccc(O)cc2)NC(=O)C(NC(=O)C(N)Cc2ccc3ccccc3c2)CSSCC(C(=O)NC(C(N)=O)C(C)O)NC1=O (configuration not stated) [lanreotide]	1	1	0.986	1.02	1.01	1.01
Cc1[nH]c(=O)c(C#N)cc1-c1ccncc1 [Milrinone]	1.05	1.03	1.04	1.03	1.07	1.02
CCC(c1cccc(O)c1)C(C)CN(C)C (configuration not stated) [Tapentadol]	1.01	1.01	0.986	1	1	1.01
Cc1ccc(C2OC(CO)C(O)C(O)C2O)cc1Cc1ccc(-c2ccc(F)cc2)s1 (configuration not stated) [Canagliflozin]	1.07	1.02	1.02	1	1.05	1.03
Cl.NC(CO)C(=O)NNCc1ccc(O)c(O)c1O (configuration not stated) [Benserazide HCl]	1.1	1.05	1.05	1.06	1.05	1.03
C=CCN1CC(C(=O)N(CCCN(C)C)C(=O)NCC)CC2c3cccc4[nH]cc(c34)CC21 (configuration not stated) [Cabergoline]	1.05	1.01	1.04	1.05	1.05	1.03
CC(NCCc1ccc(O)cc1)C(O)c1ccc(O)cc1.[Cl-].[H+] (configuration not stated) [Ritodrine HCl]	1.1	1.07	0.975	1.01	1.11	1.02
CN1CCN(C2=Nc3ccccc3Oc3ccc(Cl)cc32)CC1 [Loxapine]	1.03	0.995	1.04	1.03	1.06	1.02
CCc1ccc(OCc2ccccc2C(=O)Nc2ccc3nc(C)cc(N)c3c2)cc1.[Cl-].[H+] [JTC-801]	0.744	0.751	0.713	0.718	0.8	0.778
Cc1cccc(C)c1NC1=NCCCS1.[Cl-].[H+] [Xylazine HCl]	1.12	1.04	1.02	1.04	1.07	1.01
Cl.Cl.OCCN1CCN(CCCN2c3ccccc3Sc3ccc(C(F)(F)F)cc32)CC1 [Fluphenazine dihydrochloride?]	1.02	1.01	1.03	1.03	1.05	1.02
CC(C)C(=O)OCC(=O)[C@@]12O[C@H](C3CCCCC3)O[C@@H]1C[C@H]1[C@@H]3CCC4=CC(=O)C=C[C@]4(C)[C@H]3[C@@H](O)C[C@@]12C [Ciclesonide]	0.999	0.947	0.996	1.03	1.05	0.955
CC(c1cc2ccccc2s1)N(O)C(N)=O (configuration not stated) [Zileuton]	1.07	1.04	1.04	1.05	1.05	1.04
O=C(OC1C[N+]2(CCCOc3ccccc3)CCC1CC2)C(O)(c1cccs1)c1cccs1.[Br-] (configuration not stated) [Aclidinium Bromide]	0.997	1.01	1.03	1.03	1.02	0.988
CCN(Cc1ccncc1)C(=O)C(CO)c1ccccc1 (configuration not stated) [Tropicamide]	1.09	1.05	1.02	1.01	1.07	1.01
CCOC(=O)c1cncn1C(C)c1ccccc1 (configuration not stated) [Etomidate]	1.09	1.08	1.05	1.03	1.07	0.999
COc1cc2nc(N3CCN(C(=O)C4CCCO4)CC3)nc(N)c2cc1OC.[Cl-].[H+] (configuration not stated) [Terazosin]	1.07	1.02	0.999	0.998	1.01	1.03
COC(=O)[C@H](c1ccccc1Cl)N1CCc2sccc2C1 [Clopidogrel]	1.07	1.06	1	1.03	1.06	1.01
CC1(C)C[C@@H]1C(=O)N/C(=C\CCCCSC[C@H](N)C(=O)O)C(=O)[O-].[Na+] [Cilastatin sodium]	1.05	1.03	1	1.02	1.03	1.01
O=C(O)CCCN1CCC(OC(c2ccc(Cl)cc2)c2ccccn2)CC1.O=S(=O)(O)c1ccccc1 (configuration not stated) [Bepotastine Besilate]	1.09	1.03	1.03	1.03	1.06	0.992
CCCC(=O)O[C@]1(C(=O)COC(C)=O)CC[C@H]2[C@@H]3C[C@H](F)C4=CC(=O)C=C[C@]4(C)[C@@]3(F)[C@@H](O)C[C@@]21C [Difluprednate]	1.02	0.976	0.975	1.03	1.04	0.939
COc1cc2c(cc1OC)C1Cc3ccc(OC)c(OC)c3CN1CC2 (configuration not stated) [Rotundine]	1.11	1.03	0.997	1.02	1.04	0.992
COc1cc(NC(=O)c2ccccn2)ccc1Cl	1.07	1.01	1.05	1.01	1.05	0.979
Cc1cc2c(s1)Nc1ccccc1N=C2N1CCN(C)CC1 [Olanzapine]	1.08	1.02	1.01	1.03	1.06	0.97
CCCCCCCCOc1ccccc1C(=O)Nc1ccc(C(=O)OCC[N+](C)(CC)CC)cc1.[Br-] [Otilonium Bromide]	1.07	0.939	1.04	0.947	1.01	1

Compound	area under growth-rate inhibition curve (BT474-LTR)	area under growth-rate inhibition curve (BT474-P)	area under growth-rate inhibition curve (MDA-MB-231)	area under growth-rate inhibition curve (MDA-MB-468)	area under growth-rate inhibition curve (SKBR3-LTR)	area under growth-rate inhibition curve (SKBR3-P)
OC[C@H](O)CN1CCN(c2ccccc2)CC1 [Levodropropizine]	0.995	1.01	0.999	1.03	0.975	1.02
NCCCC[C@H](N[C@@H](CCc1ccccc1)C(=O)O)C(=O)N1CCC[C@H]1C(=O)O.O.O [Lisinopril]	1.1	1.06	1.01	1	1.08	1.02
CCOc1cc([C@@H](CS(C)(=O)=O)N2C(=O)c3cccc(NC(C)=O)c3C2=O)ccc1OC [Apremilast]	1.04	1.01	1	1.03	1.05	1.02
NCCc1ccc(O)c(O)c1.[Cl-].[H+] [Dopamine HCl]	1.11	1.04	1.02	1.03	1.07	1.02
CC(C)(Cc1ccc2ccccc2c1)NC[C@@H](O)COc1cccc(Cl)c1C#N [NPS-2143]	0.815	0.808	0.874	0.817	0.794	0.833
Nc1cccc2c1CN(C1CCC(=O)NC1=O)C2=O (configuration not stated) [lenalidomide]	1.03	1.01	1.04	1.04	1.06	1.02
CCOc1cc(N)c(Cl)cc1C(=O)NCC1CN(Cc2ccc(F)cc2)CCO1.O=C(O)CC(O)(CC(=O)O)C(=O)O (configuration not stated) [Mosapride Citrate]	1.09	1.04	1.03	1.02	1.02	1.01
COc1ccccc1N1CCN(CCCNc2cc(=O)n(C)c(=O)n2C)CC1.[Cl-].[H+] [Urapidil HCl]	1.1	1.03	1.02	1.04	1.09	1.04
CNC(=O)[C@@H](c1ccccc1)N1CCc2cc(OC)c(OC)cc2[C@@H]1CCc1ccc(C(F)(F)F)cc1.Cl [Almorexant HCl]	1.07	0.976	1.01	1	0.988	0.977
C[C@H](Cc1cc2c(c(C(N)=O)c1)N(CCCO)CC2)NCCOc1ccccc1OCC(F)(F)F [Silodosin]	1.1	1.06	1.04	1.05	1.1	1.03
CN1c2ccccc2C(NCCCCCCC(=O)[O-])c2ccc(Cl)cc2S1(=O)=O.[Na+] (configuration not stated) [Tianeptine sodium]	1.09	1.06	1.02	1.05	1.02	1.01
CNCC(O)c1ccc(O)cc1.Cl (configuration not stated) [Synephrine HCl]	1.11	1.05	0.993	1.05	1.07	1.01
CCCCC(=O)O[C@H]1CC[C@H]2[C@@H]3CCc4cc(O)ccc4[C@H]3CC[C@]12C [Estradiol valerate]	1.05	1.04	1.01	1.03	1.05	1.02
Fc1ccc([C@@H]2CCNC[C@H]2COc2ccc3c(c2)OCO3)cc1.[Cl-].[H+] [Paroxetine HCl]	0.927	0.931	0.965	0.912	0.927	0.955
CCCN(CCC)CCc1cccc2c1CC(=O)N2 [Ropinirole]	1.05	0.994	1.03	1.06	1.05	1.02
COc1cc2nc(N3CCN(C(=O)C4CCCO4)CC3)nc(N)c2cc1OC.O.[Cl-].[H+] (configuration not stated) [Terazosin HCl]	1.09	1.02	1.02	1.04	1.1	1.03
N#Cc1cc2cc(CN3CCC(Nc4ncnc5sc(CC(F)(F)F)cc45)CC3)ccc2[nH]1 [MI-136]	0.906	0.833	0.931	0.834	1.01	0.895
Nc1nc2c(cnn2CCc2ccccc2)c2nc(-c3ccco3)nn12	0.94	0.99	1	0.781	0.902	0.666
Oc1ccc([C@H]2COc3cc(O)ccc3C2)cc1 [Equol]	1.08	1.07	1.02	1.01	1.05	1.05
C[C@]12CC[C@@H]3c4ccc(O)cc4CC[C@H]3[C@@H]1C[C@@H](O)[C@@H]2O [Estriol]	1.01	0.979	0.988	0.987	1.01	0.989
CCc1c(C)[nH]c2c1C(=O)C(CN1CCOCC1)CC2 (configuration not stated) [molindone]	1.04	1.01	1.05	1.06	1.05	1.03
CN(C)CCC[C@@]1(c2ccc(F)cc2)OCc2cc(C#N)ccc21.O=C(O)C(=O)O [Escitalopram Oxalate]	1.1	1.03	1.02	1.02	1.02	0.985
Cc1cccc(C#Cc2ccccc2)n1 [MPEP]	1.1	1.03	1.05	1.03	1.05	0.999
C[N+]1(C)[C@@H]2CC(OC(=O)C(O)(c3cccs3)c3cccs3)C[C@H]1C1OC12.O.[Br-] (some centres not stated) [Tiotropium Bromide hydrate]	1.12	1.05	1.05	1.03	1.04	1.02
COc1ccc(CN(CCN(C)C)c2ccccn2)cc1.O=C(O)/C=C\C(=O)O [Mepyramine maleate]	1.06	1.03	1.05	1.05	1.05	1.05
Cc1cc(CS(=O)(=O)c2ccccc2)cc(OCc2ccc(CN3CCC[C@@H]3CO)cc2)c1 [PF-543]	1.01	0.97	1.01	0.99	1.07	1.03
